PMC9964746, “Mechanism of Action and Structure–Activity Relationships of Tetracyclic Small Molecules Acting as Universal Positive Allosteric Modulators of the Cholecystokinin Receptor” (Membranes, 2023)
“And” between values parts separate entries of the source, which are not always exact repeats. Identical values can stand only once.

Tests used:
Assay type in all cases: cell-based
[1] = molecular target: T1, vasopressin-2 receptor (AVP2R) (Homo sapiens, UniProt P30518); test: AVP2R cAMP HTRF accumulation assay; conditions: CHO-K1 AVP2R cells; for AVP2R PAM (cAMP) Score (activity score = normalized Emax × pEC50): PAM format; for EC50 / Emax: PAM format with vasopressin, original hits: agonist and PAM data combined, average ± SD
T1 construct: expressed in transfected cells; host or cells: CHO-K1 (PAM format); HEK-293 (agonist format)
T1 sequence (P30518 whole entry): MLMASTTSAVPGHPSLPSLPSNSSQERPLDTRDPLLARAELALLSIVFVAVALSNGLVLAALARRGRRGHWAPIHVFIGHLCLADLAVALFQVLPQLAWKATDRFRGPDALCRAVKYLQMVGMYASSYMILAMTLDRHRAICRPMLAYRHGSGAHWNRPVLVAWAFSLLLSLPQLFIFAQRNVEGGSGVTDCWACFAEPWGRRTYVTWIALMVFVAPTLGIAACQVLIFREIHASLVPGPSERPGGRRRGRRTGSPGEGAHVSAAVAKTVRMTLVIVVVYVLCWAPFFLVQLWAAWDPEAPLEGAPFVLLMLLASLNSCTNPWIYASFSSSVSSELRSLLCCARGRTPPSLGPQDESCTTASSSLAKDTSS
Experimental: Possible off-target biological effects. […] Here, we tested them at the vasopressin-2 receptor (AVP2R), representing a class A GPCR structurally related to CCK1R, which is coupled to Gs. The activity at AVP2R was tested using AVP2R-overexpressing CHO-K1 (PAM format) or HEK-293 (agonist format) cells, stimulating the cells with vasopressin. Original hits were tested in both agonist and PAM formats. Since all recognized compound responses were present in both formats, we continued to screen analogs in only the PAM format (also able to capture agonist effects) in CHO-K1 AVP2R cells for potential enhanced sensitivity. The dose–response data sets for original hits were combined, as the PAM and agonist effects were indistinguishable. In brief, arginine vasopressin (AVP) orthosteric stimulator dilutions and ligand and compound dose–response titrations in DMSO were transferred onto a 1536-well plate (Corning #3725) using an Echo liquid handler (Labcyte). Thawed cryopreserved cell stocks were diluted in stimulation buffer consisting of HBSS (Hank’s Balanced Salt Solution with Ca^2+ and Mg^2+, Gibco #24020117), 5 mM HEPES (hydroxyethyl piperazineethanesulfonic acid), 0.5 mM IBMX (3-isobutyl-1-methylxanthine, Sigma-Aldrich), and 0.075% BSA (7.5% DTPA-purified bovine serum albumin, PerkinElmer). The resulting cell suspension was added to the microplate and incubated with test compounds at room temperature for 30 min. Then, the detection reagents from the Cisbio cAMP Gs Dynamic HTRF detection kit were added. The plate was kept at room temperature for 30 min and read on a PHERAstar FSX microplate reader. Dose–response curves were performed as 16-point 2-fold dilutions in duplicate in at least two independent experiments.

CCK1R [2] = molecular target: T2, CCK1R (Homo sapiens, UniProt P32238); test: IP-One accumulation TR-FRET assay, PAM format, HEK-293 CCK1R cells; parameters: expressed in transfected cells; host or cells: HEK-293; conditions: for Emax: HEK293, relative to CCK control; for Emax / CCK1R PAM (IP-One) Score (activity score = normalized Emax × pEC50) / EC50: HEK-293 CCK1R cells; for Emax / CCK1R PAM (IP-One) Score (activity score = normalized Emax × pEC50): PAM format; for Emax / EC50: average ± SD; for EC50: PAM format with EC20 CCK; for CCK1R IP-One activity (in words): PAM and agonist formats
T2 sequence (P32238 1-428): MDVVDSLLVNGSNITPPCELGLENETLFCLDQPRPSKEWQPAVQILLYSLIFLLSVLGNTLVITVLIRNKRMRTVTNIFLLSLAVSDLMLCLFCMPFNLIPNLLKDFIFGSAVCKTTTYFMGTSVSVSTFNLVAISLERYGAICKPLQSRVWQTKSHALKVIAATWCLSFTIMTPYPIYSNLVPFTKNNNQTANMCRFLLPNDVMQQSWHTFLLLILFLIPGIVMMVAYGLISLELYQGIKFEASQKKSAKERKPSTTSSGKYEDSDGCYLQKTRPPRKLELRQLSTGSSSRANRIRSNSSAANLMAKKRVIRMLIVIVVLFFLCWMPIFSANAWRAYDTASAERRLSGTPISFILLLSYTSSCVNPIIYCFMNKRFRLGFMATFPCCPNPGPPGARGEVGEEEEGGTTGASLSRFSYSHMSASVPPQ
Experimental: (§1) For structure–activity relationship studies, we performed myo-inositol-1-phosphate (IP-One) accumulation assays with TR-FRET technology applied to the HEK-293 cell line overexpressing CCK1Rs, as we had described in our high throughput screening effort. In brief, thawed cryopreserved cell stocks were re-suspended in IP-One assay media consisting of phenol-red free DMEM (Corning, Corning, NY, USA, #17-205-CV) with 10% FBS, 1% penicillin (10,000 units)/streptomycin (10 mg) (Pen/Strep, Thermo Fisher Scientific, Waltham, MA, USA, Gibco #15140122), and 1% L-glutamine (200 mM) (Gibco #25030081) and diluted to required cell densities. Then, the cell suspension was dispensed into a 1536-well tissue culture microplate (Corning, #3727), and the plate was incubated overnight at 37 °C and 5% CO^2. After 16–20 h, DMSO or compounds were added with an Echo liquid handler (Labcyte, San Jose, CA, USA), resulting in a top final compound concentration of 50 µM diluted 2-fold for 16-point dose–responses. For the positive allosteric modulator (PAM) format, orthosteric stimulator (CCK) dilutions for control wells were prepared in assay media containing 150 mM lithium chloride (LiCl, 50 mM final, Sigma-Aldrich, St Louis, MO, USA, #L7026). After a 30 min incubation of test compounds at 37 °C and 5% CO2, orthosteric stimulator dilutions (for PAM format) or equivalent dilutions of DMSO (for agonist format) were added to designated wells using BioRaptr (Beckman Coulter, Brea, CA, USA). In addition, CCK control ligand dilutions were included on each test plate. After that, the plate was incubated for 1 h at 37 °C and 5% CO^2 and equilibrated to room temperature. Detection reagents from the IP-One Gq detection kit from Cisbio (Cisbio US Inc., Bedford, MA, USA, #62IPAPEJ) were added, and after 1 h at RT, IP-One content was measured with a PHERAstar FSX microplate reader (BMG Labtech, Ortenberg, Germany). Control ligand dose–responses were analyzed using GraphPad Prism 9.3.1 (San Diego, CA, USA) to validate adequate control and test well concentrations for positive allosteric modulation (PAM) and agonist formats. Dose–response curves were performed as 16-point 2-fold dilutions in duplicates in at least three independent experiments. Large data sets were uploaded and analyzed with CBIS (Chemical and Biology Information System software, ChemInnovation Software, Inc., San Diego, CA, USA). Further data analysis for detailed SAR studies was conducted using the D360 software (Certara).
(§2) The potency and efficacy data for these compounds were used to calculate their activity scores using the following formula: Activity Score = normalized Emax × pEC50. Normalized Emax represents the efficacy of the compound as a fractional response relative to that of the CCK control ligand. pEC50 represents the positive logarithmic value of compound EC50 concentrations in (M).

CCK1R [3] = molecular target: T2, CCK1R; test: IP-One accumulation TR-FRET assay, agonist format, HEK-293 CCK1R cells; parameters: expressed in transfected cells; host or cells: HEK-293; conditions: for Emax: HEK293, relative to CCK control, read-out: CCK1R Ago (IP-One) Emax; for Emax / EC50: average ± SD; for EC50: read-out: CCK1R Ago (IP-One) EC50
Experimental: as §1, §2

| AVP2R PAM (cAMP) Score (activity score = normalized Emax × pEC50) [1] | EC50 [1] [µM] | Emax [1] [%] | Emax (CCK1R [2]) [%] | CCK1R PAM (IP-One) Score (activity score = normalized Emax × pEC50) (CCK1R [2]) | EC50 (CCK1R [2]) [µM] | CCK1R Ago (IP-One) Score (activity score = normalized Emax × pEC50) (CCK1R [3]) | Emax (CCK1R [3]) [%] | EC50 (CCK1R [3]) [µM] | Log(Rmax/R50) (CCK1R [2]; CCK1R IP-One PAM assay) | CCK1R IP-One activity (in words) (CCK1R [2]) | SMILES |
| --- | --- | --- | --- | --- | --- | --- | --- | --- | --- | --- | --- |
| 2.9 and 2.92 | 2.7 ± 0.7 | 52 ± 4 | 39 ± 11 | 1.9 and 1.87 | 12.2 ± 4.6 | 2.76 | 60 ± 4.5 | 26.9 ± 1.1 | – | – | NCCNc1ncnc2c1sc1nc(N3CCCCC3)c3c(c12)CCCC3 [CMP-22] |
| 3.0 and 2.97 | 4.7 ± 4.1 | 56 ± 33 | 44 ± 10 | 2.17 | 8.9 ± 1.7 | 0.72 | 17 ± 5 | 29.7 ± 8 | – | – | CN(C)CCNc1ncnc2c1sc1nc(-c3ccccc3)c3c(c12)CCCC3 [CMP-14] |
| 0 | – | 0 | 20 ± 7.6 | 1.0 and 1.01 | 7.6 ± 3.3 | 0 | 0 | – | 4.4 | – | CCCc1nc2sc3c(SC)ncnc3c2c2c1CCCC2 [CMP-38] |
| 1.6 and 1.61 | 6.5 ± 4.2 | 31 ± 2 | 48 ± 11 | 2.4 and 2.39 | 8 ± 2.1 | 0 | – | – | – | – | CCCc1nc2sc3c(NCCN(CC)CC)ncnc3c2c2c1CCCC2 [CMP-7] |
| 0 | – | 0 | 0 | 0 | – | 0 | 0 | – | – | significantly diminished responses | CCN(CC)c1ncnc2c1sc1nc(N3CCOCC3)c3c(c12)CCCC3 [CMP-46] |
| 2.3 and 2.31 | 15.7 ± 8.4 | 48 ± 12 | 53 ± 1 | 2.34 | 37.8 ± 3.9 | 0 | – | – | – | – | CCCc1nc2sc3c(NCCN4CCOCC4)ncnc3c2c2c1CCCC2 [CMP-8] |
| 1.41 | 6.1 ± 2.8 | 27 ± 20 | 25 ± 10 | 1.32 | 3.3 ± 5.4 | 0 | – | – | – | – | CCCc1nc2oc3c(NCCCN(CC)CC)ncnc3c2c2c1CCCC2 [CMP-36] |
| 2.97 | 7.3 ± 3.3 | 58 ± 15 | 43 ± 3 | 2.04 | 17.8 ± 6.2 | 0 | – | – | – | – | CC(C)Cc1nc2oc3c(N4CCNCC4)ncnc3c2c2c1CCCC2 [CMP-15] |
| 1.60 | 21 ± 6.5 | 34 ± 1 | 35 ± 19 | 1.51 | 18.8 ± 7.7 | 0 | – | – | – | – | CCN(CC)CCNc1ncnc2c1oc1nc(CC(C)C)c3c(c12)CCC3 [CMP-33] |
| 0 | – | 0 | 0 | 0 | – | 0 | 0 | – | – | significantly diminished responses | NNc1ncnc2c1sc1nc(N3CCOCC3)c3c(c12)CCCC3 [CMP-51] |

| SMILES | AVP2R PAM (cAMP) Score (activity score = normalized Emax × pEC50) [1] | EC50 [1] [µM] | Emax [1] [%] | Emax (CCK1R [2]) [%] | CCK1R PAM (IP-One) Score (activity score = normalized Emax × pEC50) (CCK1R [2]) | EC50 (CCK1R [2]) [µM] | CCK1R Ago (IP-One) Score (activity score = normalized Emax × pEC50) (CCK1R [3]) | Emax (CCK1R [3]) [%] | EC50 (CCK1R [3]) [µM] | Log(Rmax/R50) (CCK1R [2]; CCK1R IP-One PAM assay) | CCK1R IP-One activity (in words) (CCK1R [2]) |
| --- | --- | --- | --- | --- | --- | --- | --- | --- | --- | --- | --- |
| COCCNc1ncnc2c1sc1nc(N3CCOCC3)c3c(c12)CCCC3 [CMP-47] | 0 | – | 0 | 0 | 0 | – | 0 | 0 | – | – | None of these analogs showed any CCK1R activity |
